Results from patent US9938272B2, “Hydrazine compound as blood coagulation factor Xa inhibitor” (NORTH CHINA PHARMACEUTICAL COMPANY., LTD., priority 2014, dated 2018).

Legend:
[1] = terminal phase; cited from earlier work
rat Factor Xa = rat Factor Xa (Rattus norvegicus (Rat), UniProt Q63207); test: Rat factor Xa chromogenic assay; type: biochemical; conditions: substrate S-2222, read-out: rfXa Ki
human thrombin = human thrombin (Homo sapiens (Human), UniProt P00734); test: Human thrombin assay; type: biochemical; conditions: substrate S-2238
prothrombinase = prothrombinase (Homo sapiens (Human), UniProt P00742); test: Prothrombinase assay (thrombin generation); type: biochemical; conditions: human factor Xa with human platelets, prothrombin, substrate S-2238
human Factor Xa = human Factor Xa (Homo sapiens (Human), UniProt P00742); test: Human factor Xa chromogenic assay; type: biochemical; conditions: substrate S-2222, read-out: hfXa Ki
human trypsin = human trypsin (Homo sapiens, UniProt P07477); test: Human trypsin assay; type: biochemical; conditions: substrate S-2222
[2] = cited from earlier work

prothrombinase, sequence (P00742 235-488): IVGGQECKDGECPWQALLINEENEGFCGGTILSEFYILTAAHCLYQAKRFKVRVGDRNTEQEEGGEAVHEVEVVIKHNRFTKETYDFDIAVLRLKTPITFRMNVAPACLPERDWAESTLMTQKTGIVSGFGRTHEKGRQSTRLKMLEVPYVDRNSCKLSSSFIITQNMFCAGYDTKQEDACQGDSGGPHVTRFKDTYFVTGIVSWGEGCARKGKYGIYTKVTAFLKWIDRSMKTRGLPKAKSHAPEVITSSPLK
prothrombinase, sequence (P00742 41-179): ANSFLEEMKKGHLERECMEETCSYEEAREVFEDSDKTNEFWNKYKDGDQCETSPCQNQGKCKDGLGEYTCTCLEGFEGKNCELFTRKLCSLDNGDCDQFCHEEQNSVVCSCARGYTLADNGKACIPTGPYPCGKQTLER
prothrombinase, sequence (P12259 29-737 partner): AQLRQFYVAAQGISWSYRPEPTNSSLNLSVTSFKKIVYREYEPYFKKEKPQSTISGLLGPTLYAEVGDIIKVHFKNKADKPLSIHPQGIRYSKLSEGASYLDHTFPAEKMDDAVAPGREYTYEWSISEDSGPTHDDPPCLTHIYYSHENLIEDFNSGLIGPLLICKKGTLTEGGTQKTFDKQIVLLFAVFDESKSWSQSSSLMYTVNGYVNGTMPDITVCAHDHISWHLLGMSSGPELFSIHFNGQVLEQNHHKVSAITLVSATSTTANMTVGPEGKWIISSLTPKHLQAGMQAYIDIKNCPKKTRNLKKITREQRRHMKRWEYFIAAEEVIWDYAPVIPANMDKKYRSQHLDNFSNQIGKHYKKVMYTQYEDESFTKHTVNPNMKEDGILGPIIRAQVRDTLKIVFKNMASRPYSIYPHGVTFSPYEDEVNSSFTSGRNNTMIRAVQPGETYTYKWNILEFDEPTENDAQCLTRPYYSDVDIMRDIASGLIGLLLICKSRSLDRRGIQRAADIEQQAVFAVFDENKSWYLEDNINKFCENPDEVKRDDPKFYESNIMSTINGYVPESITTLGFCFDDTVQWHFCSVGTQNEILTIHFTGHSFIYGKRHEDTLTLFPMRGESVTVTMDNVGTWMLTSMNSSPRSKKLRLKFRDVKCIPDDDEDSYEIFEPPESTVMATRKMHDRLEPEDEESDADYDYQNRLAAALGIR
prothrombinase, sequence (P12259 1574-2224 partner): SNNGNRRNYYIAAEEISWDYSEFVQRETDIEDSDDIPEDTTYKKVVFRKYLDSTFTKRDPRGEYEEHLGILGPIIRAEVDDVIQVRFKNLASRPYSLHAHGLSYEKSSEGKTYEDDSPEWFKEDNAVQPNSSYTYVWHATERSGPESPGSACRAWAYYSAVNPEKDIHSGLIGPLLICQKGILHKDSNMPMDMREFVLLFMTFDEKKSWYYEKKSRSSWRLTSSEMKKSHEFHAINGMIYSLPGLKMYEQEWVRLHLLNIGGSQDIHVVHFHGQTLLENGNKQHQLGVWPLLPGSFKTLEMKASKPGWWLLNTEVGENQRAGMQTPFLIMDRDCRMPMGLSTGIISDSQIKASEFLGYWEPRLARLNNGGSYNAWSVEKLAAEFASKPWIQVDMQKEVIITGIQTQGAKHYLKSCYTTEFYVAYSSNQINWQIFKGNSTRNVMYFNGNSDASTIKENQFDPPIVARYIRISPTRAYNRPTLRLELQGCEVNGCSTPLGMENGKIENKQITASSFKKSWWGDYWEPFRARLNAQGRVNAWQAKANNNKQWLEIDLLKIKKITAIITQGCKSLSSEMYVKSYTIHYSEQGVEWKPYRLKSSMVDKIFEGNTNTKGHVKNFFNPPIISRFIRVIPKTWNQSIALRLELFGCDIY
human Factor Xa, sequence (P00742 235-488): as the sequence (P00742 235-488) above
human Factor Xa, sequence (P00742 41-179): as the sequence (P00742 41-179) above
rat Factor Xa, sequence (Q63207 232-482): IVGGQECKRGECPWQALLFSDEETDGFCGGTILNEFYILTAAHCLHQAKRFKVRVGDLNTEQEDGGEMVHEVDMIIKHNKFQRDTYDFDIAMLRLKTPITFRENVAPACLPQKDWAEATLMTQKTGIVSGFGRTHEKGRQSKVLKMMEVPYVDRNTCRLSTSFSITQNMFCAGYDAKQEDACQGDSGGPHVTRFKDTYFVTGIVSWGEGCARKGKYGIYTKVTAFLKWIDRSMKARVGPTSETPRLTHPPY
rat Factor Xa, sequence (Q63207 41-180): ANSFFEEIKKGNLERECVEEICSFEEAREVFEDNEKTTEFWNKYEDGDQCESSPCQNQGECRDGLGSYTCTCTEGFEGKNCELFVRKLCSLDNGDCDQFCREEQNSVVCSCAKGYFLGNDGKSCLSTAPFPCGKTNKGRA

Structure (SMILES)	mean elimination t½ [1] [h]	Ki (rat Factor Xa) [nM]	Ki (human thrombin) [nM]	Ki (prothrombinase) [nM]	Ki (human Factor Xa) [nM]	Ki (human trypsin) [nM]	water solubility [2]
COc1ccc(-n2nc(C(N)=O)c3c2C(=O)N(c2ccc(N4CCCCC4=O)cc2)CC3)cc1 [Apixaban, apixaban]	8 to 15						
COc1ccc(-n2nc(C(N)=O)c3c2C(=O)N(N2CCC(N4CCCCC4=O)CC2)CC3)cc1 [Example 14, 1-(4-Methoxyphenyl)-7-oxo-6-(2-oxo-[1,4′-bipiperidin]-1′-yl)-4,5,6,7-tetrahydro-1H-pyrazolo[3,4-c]pyridine-3-carboxamide]		50 to 1000	≥ 1000	≤ 10	≤ 10	≥ 1000	
O=C1c2c(c(C(F)(F)F)nn2-c2ccc(OC(F)F)cc2)CCN1C1CCN(N2CCOCC2=O)CC1 [Example 23, 4-(4-(1-(4-(Difluoromethoxy)phenyl)-7-oxo-3-(trifluoromethyl)-4,5-dihydro-1H-pyrazolo[3,4-c]pyridin-6(7H)-yl)piperidin-1-yl)morpholin-3-one]		10 to 50	≥ 1000	≤ 10	≤ 10	≥ 1000	
O=C1c2c(c(C(F)(F)F)nn2-c2ccc3cc(Cl)ccc3c2)CCN1C1CCN(N2CCOCC2=O)CC1 [Example 24, 4-(4-(1-(6-Chloronaphthalen-2-yl)-7-oxo-3-(trifluoromethyl)-4,5-dihydro-1H-pyrazolo[3,4-c]pyridin-6(7H)-yl)piperidin-1-yl)morpholin-3-one]		≤ 10	≥ 1000	≤ 10	≤ 10	≥ 1000	
Nc1noc2ccc(-n3nc(C(F)(F)F)c4c3C(=O)N(C3CCN(N5CCOCC5=O)CC3)CC4)cc12 [Example 26, 4-(4-(1-(3-Aminobenzo[d]isoxazol-5-yl)-7-oxo-3-(trifluoromethyl)-4,5-dihydro-1H-pyrazolo[3,4-c]pyridin-6(7H)-yl)piperidin-1-yl)morpholin-3-one]		≤ 10	≥ 1000	≤ 10	≤ 10	≥ 1000	
COc1ccc(-n2nc(C(F)(F)F)c3c2C(=O)N(C2CCN(N4CCOCC4=O)CC2)CC3)cc1F [Example 28, 4-(4-(1-(3-Fluoro-4-methoxyphenyl)-7-oxo-3-(trifluoromethyl)-4,5-dihydro-1H-pyrazolo[3,4-c]pyridin-6(7H)-yl)piperidin-1-yl)morpholin-3-one]		≤ 10	≥ 1000	≤ 10	≤ 10	≥ 1000	
O=C1c2c(c(C(F)(F)F)nn2-c2cc3ccccc3cc2F)CCN1C1CCN(N2CCOCC2=O)CC1 [Example 29, 4-(4-(1-(3-Fluoronaphthalen-2-yl)-7-oxo-3-(trifluoromethyl)-4,5-dihydro-1H-pyrazolo[3,4-c]pyridin-6(7H)-yl)piperidin-1-yl)morpholin-3-one]		≤ 10	≥ 1000	≤ 10	≤ 10	≥ 1000	
NC(=O)c1cccc(-n2nc(C(F)(F)F)c3c2C(=O)N(C2CCN(N4CCOCC4=O)CC2)CC3)c1 [Example 31, 3-(7-Oxo-6-(1-(3-oxomorpholino)piperidin-4-yl)-3-(trifluoromethyl)-4,5,6,7-tetrahydro-1H-pyrazolo[3,4-c]pyridin-1-yl)benzamide]		10 to 50	≥ 1000	10 to 50	≤ 10	≥ 1000	
O=C(NC[C@H]1CN(c2ccc(N3CCOCC3=O)cc2)C(=O)O1)c1ccc(Cl)s1 [rivaroxaban]							limited
